We go through 1 molecule from patent US20210338842A1, “DUAL-MODALITY NANOPROBE TARGETING GLIOBLASTOMA AND PREPARATION METHOD THEREOF” (West China Hospital of Sichuan University, priority 2020, published 2021).

A short description of the data set: Evaluation of restricted permeability of in vitro BBB model with fluorescein sodium (Transwell). The data set is classed as in vitro ADME, mouse. The settings on record: NaFl 10 μg/mL in upper chamber, read-out: permeability coefficient Papp. How it is done: Experimental method: an in vitro blood-brain barrier model was established to evaluate the permeability of dual-modality nanoprobes. U87-MG cells and bEnd.3 cells were cultured in high glucose DMEM containing 10% fetal bovine serum and 1% penicillin/streptomycin at 37° C. and 5% CO2. A thin layer of collagen solution was evenly coated on the inner side of Transwell poly microporous lipid membrane, the membrane was placed on an ultra-clean table for about 30 min, and it was used after naturally dried. bEnd.3 cells were inoculated into the upper chamber of a 24-well Transwell at a density of 5×10^4 cells/well. Two days later, U87-MG cells were inoculated into the lower chamber of the upper chamber at a density of 1×10^5 cells/well, and the two kind of cells were continued to co-culture for one week.
The permeability of BBB in vitro was evaluated by fluorescein sodium, and a series of standard solutions of fluorescein sodium (NaFl) were prepared with PBS, with the concentrations of 0.05, 0.10, 0.15, 0.20, 0.25, 0.30, 0.35, 0.40, 0.45 and 0.50 μg/mL, respectively. The absorbance value was measured with a multifunctional ELISA reader (the excitation wavelength was set at 485 nm and the detection wavelength was 535 nm). Then the standard curve of NaFl concentration and absorbance value was made. […]

Take `O=C1OC2(c3ccc(O)cc3Oc3cc(O)ccc32)c2ccccc21` [NaFl, Fluorescein sodium]: the Papp A→B at 10 μg/mL (mouse, BBB model group, 30, 60, 90 min) was 11.2 ± 0.73 ×10⁻⁶ cm/s. Also, where the note is “small blank chamber (no cells)”, the Papp (usually a coefficient for how fast a substance crosses the barrier) at 10 μg/mL is 67.8 ×10⁻⁶ cm/s.
